“And” between values parts separate entries of the source, which are not always exact repeats. Identical values can stand only once.
How the values were obtained:
Type in all cases: biochemical, Colletotrichum sp. M5073
L-amino acid oxidase [1] = assay: Substrate specificity of L-amino acid oxidase (enzyme activity measurement, H2O2 colorimetry); conditions: for Relative activity (%) on substrate: 5 m mole of the substrate, 0.007 U of the enzyme, 37° C., 10 minutes, L-Leucine = 100
Procedure: (§1) 0.9 ml of a reaction solution of the following composition is placed in a small test tube and warmed to 37° C.
(§2) 0.1 ml of a liquid containing L-amino acid oxidase is added thereto and reaction continued for exactly for 10 minutes at 37° C. The reaction was terminated by adding 2.0 ml of ethanol. Then, the amount of hydrogen peroxide formed is colorimetrically determined from absorbance measured at 480 nm. The enzymatic activity is determined from the amount of the hydrogen peroxide formed with the following equation: […]
(§3) The amount of the enzyme which produces 1μ mole of hydrogen peroxide at 37° C. in one minute is defined as one unit (1 U).
Enzymatic activities of the enzyme on various substrates as shown in the Table 1 below are measured with the same procedures as the measurement of the enzyme activity by using 5 m mole of the substrate and 0.007 U of the enzyme.

L-amino acid oxidase [2] = assay: Inhibition and activation of L-amino acid oxidase by metallic ions or other additives; conditions: 1 mM additive, 0.01 U of the enzyme; None = 100
Procedure: as §1, §2, §3
The enzymatic activities of the enzyme are measured with the same procedures as the measurement of the enzyme activity using 0.01 U of the enzyme, and adding 1 mM of various metallic ions or other additives as shown in Table 2 below to the reaction solution. Cyano ion has a strong inhibiting effect on the enzyme and no ion is found to have an activating effect on the enzyme.

L-amino acid oxidase [3] = assay: Km value of L-amino acid oxidase; conditions: upon L-leucine

Row | SMILES | Relative activity (%) on substrate (L-amino acid oxidase [1]) | Relative activity (%) with additive (L-amino acid oxidase [2]) [%] | further results
1 | N[C@H](Cc1ccccc1)C(=O)O [D-Phenylalanine] | 0.0% | – | –
2 | [N-]=[N+]=[N-].[Na+] [NaN3] | – | 100 | –
3 | [Ca+2].[Cl-].[Cl-] [CaCl2] | – | 95.4 | –
4 | CC[C@H](C)[C@H](N)C(=O)O (racemic) [DL-Isoleucine] | 15.3% | – | –
5 | N[C@@H](CO)C(=O)O [L-Serine] | 0.0% | – | –
6 | CSCC[C@H](N)C(=O)O [L-Methionine] | 93.6% | – | –
7 | C[C@@H](N)C(=O)O [D-Alanine] | 0.0% | – | –
8 | NC(Cc1c[nH]c2ccccc12)C(=O)O (racemic) [DL-Tryptophan] | 27.1% | – | –
9 | CC[C@H](C)[C@H](N)C(=O)O [L-Isoleucine] | 29.1% | – | –
10 | O=C(O)CN(CCN(CC(=O)O)CC(=O)O)CC(=O)O [EDTA] | – | 100 | –
11 | Cl.N [NH4 Cl] | – | 97.1 | –
12 | [Ba+2].[Cl-].[Cl-] [BaCl2] | – | 97.1 | –
13 | [Cl-].[Li+] [LiCl] | – | 97.5 | –
14 | [Cl][Mn][Cl] [MnCl2] | – | 97.1 | –
15 | [Cl-].[Cl-].[Zn+2] [ZnCl2] | – | 94.2 | –
16 | N[C@@H](Cc1ccc(O)cc1)C(=O)O [L-Tyrosine] | 22.2% | – | –
17 | N[C@@H](Cc1c[nH]cn1)C(=O)O [L-Histidine] | 11.8% | – | –
18 | C[C@H](N)C(=O)O [L-Alanine] | 12.3% | – | –
19 | N=C(N)NCCC[C@H](N)C(=O)O [L-Arginine] | 39.9% | – | –
20 | NCC(=O)O [L-Glycin] | 0.0% | – | –
21 | N[C@@H](CC(=O)O)C(=O)O [L-Aspartic acid] | 0.0% | – | –
22 | N[C@@H](Cc1ccccc1)C(=O)O [L-Phenylalanine] | 70.0% | – | –
23 | [Cl-].[Cl-].[Mg+2] [MgCl2] | – | 99.2 | –
24 | NCCCC[C@H](N)C(=O)O [L-Lysine] | 29.6% | – | –
25 | [F-].[Na+] [NaF] | – | 97.9 | –
26 | N[C@@H](CCC(=O)O)C(=O)O [L-Glutamic acid] | 0.0% | – | –
27 | CC(C)C[C@H](N)C(=O)O [L-Leucine] | 100.0% | – | Km (L-amino acid oxidase [3]): 170 µM; Enzyme acts upon substrate (L-amino acid oxidase [1]): acts upon
28 | [Cl-].[Cl-].[Co+2] [CoCl2] | – | 50.6 | –
29 | N[C@@H](CS)C(=O)O [L-Cysteine] | 6.4% and 0.0% | – | –
